Assay results reported in patent US20070122908A1, “Molecular Delivery to Cells Using Aspirin-Related Compounds” (UNIVERSITY OF SOUTH FLORIDA, priority 2005, published 2007).

Assays:
[1] = system: B16-F10 cells; details: mouse, pH 4.4
Procedure: The trypan blue test was used to determine membrane integrity. Trypan blue dye will only penetrate into cells that have porous membranes. […] The protocol used was similar to the methods described for the delivery of calcein. After one hour of exposure at 37° the cells were washed three times with 500 μl aliquots of PBS. Liquid from the last wash was carefully aspirated, and then filled with 500μl of growth media.
For the purpose of this study, optimal testing conditions were used to treat B16-F10 cells to conclude the extent of reversible permeation.
Due to the large surface area of the wells, the cells were physically counted by observing 7 out of 21 fields of view along the horizontal diameter of each well at a magnification of 400× (see FIG. 5). The recovery of the membranes after exposure to each treating condition was expressed as a percentage of live cells remaining after each hour.
In order to distinguish the viable cells from the dead, a 0.4% trypan blue solution in PBS was used. 150 μl of the solution was added to each well for 1 minute, and then the cells were counted using the described method. Each test condition was studied at 1 hour intervals ranging from 1 hour to 4 hours. In addition, membrane recovery was examined 24 hours post treatment.

[2] = system: B16-F10 cells; experiment: Delivery of calcein to B16-F10 cells with or without electroporation, spectrofluorometric reading of cell lysate; format: cell-based, mouse
Procedure: The effects of salicylic acid (“SA”) on the delivery of calcein to B16-F10 cells using electroporation was studied. Three identical experiments were carried out. […] All cells were exposed to 120 μM calcein. In addition, cells in some samples were exposed to one of three different concentrations of salicyclic acid (1 mM, 5 mM, or 10 mM) with pH values of 6.70, 6.32, and 3.85, respectively. Pulses with one of four different field strengths were also applied (500, 750, 1000, or 1385 V/cm) to certain samples. Salicyclic acid concentration and field strength were experimental variables; however, some cells were not exposed to applied fields or salicyclic acid for comparison/control purposes.
Delivery of calcein using aspirin (acetylsalicylic acid or “ASA”) was studied. […] The same range of pulsing conditions was used and the variables were identical for the sample treatment.
Calcein delivery by electroporation using acetic acid (“AA”) as an effector was studied. The set of 3 replicate experiments included three concentrations of AA, each with a different pH (4.40, 5.36, or 6.42). The pH values of the three solutions of acetic acid were matched to those of ASA for the purpose of determining if AA is the derivative in ASA that enhances the delivery of calcein. The three concentrations of the AA solutions in PBS were similar, which was about 0.15%, and varied slightly in order to establish the desired pH value. In addition, one of three electric field strengths were applied to cells (500, 750. or 1000 V/cm). Some cells were not exposed to applied fields or any concentration of AA for purposes of comparison and control.
B16-F10 mouse melanoma cells (ATCC#:CRL-6475) were obtained and grown in McCoy's Media (Cellgro Mediatech, Inc., Herndon. VA), adjusted to contain 10% fetal bovine serum (Cellgro Mediatech, Inc.) and (25 mg) gentamicin 50 mg/mL (Mediatech, Inc.) and were incubated in 5% CO2 at 37° C. Serum was essential for many reasons. It provided hormonal factors that stimulated cell growth and function. It also contains essential proteins, amino acids, minerals, and lipids. Gentamicin is an antibiotic used as a preventative measure to help reduce microbial growth and contamination.
Cells were prepared for experiments by first harvesting by trypsinization and then washing 3 times by centrifugation. Cells were centrifuged (5810R, Eppendorf, Westbury, N.Y.) at 220× g for 5 minutes at 37° C. and resuspended in approximately 2.5 ml of PBS for each wash. A sample of cells was then diluted in 0.9% sodium chloride (APP, Schaumburg, Ill.) and 0.4% trypan blue stain (Cellgro Mediatech, Inc.). Trypan blue is an indicator in which the membranes of non-viable cells are penetrated and can be distinguished from the viable cells. Using a hemacytometer (Hausser Scientific, Horsham, Pa.), the viable and nonviable cells were counted. The number of cells per milliliter was computed by multiplying the number of cells counted per square millimeter×the dilution (when used)×10,000 (conversion factor).
Experiments were conducted using 48-well polystyrene tissue culture plates (BD Falcon. Franklin Lakes, N.J.). Each well held approximately 1.4 ml of liquid with a surface area of 0.75 cm^2. The depth and diameter of each well was 18 mm and 10 mm, respectively.
Under aseptic conditions, 150μl of the sterile gelatin solution was added to each well and let stand for 1 hour. The gelatin was then aspirated from each of the wells and air dried for 5 minutes. 500μl of McCoy's Media was added to the treated wells in addition to 7.5×10^4 viable cells and incubated at 37° C. for 18 hours before treatment.
The electrode shown in FIG. 2 was specially designed for all experimentation in these studies and was similar to the design mentioned above. The electrode consisted of 6 stainless steel electrodes, equally spaced at 60° intervals around a 0.7 cm diameter circle.

In the case of `CC(=O)O` [AA, acetic acid], the “decline in the number of cells with intact membranes” value ([1]; 1 h) was 17%, the “cells that excluded trypan blue dye” value ([1]; 24 h) was 86% and the “cells with intact membranes” value ([1]; 24 h) was 90%. The average membrane integrity [1] was 80-95%, the “fluorescence magnitude compared to samples not exposed to AA” value ([2]; AA about 0.15% in PBS, pH 5.36 or 6.42, with or without pulses) was “failed to show a significant increase” and the “fluorescent data compared to AA alone (no pulses)” value ([2]; AA lowest pH solution (pH 4.40) in combination with electric fields) was “even higher”. For the same compound, the mean fluorescence magnitude ([2]; AA pH 4.40, 500 V/cm) was 12.77, the “increase in fluorescence magnitude vs samples not exposed to AA at same field” value ([2]; AA pH 4.40, 500 V/cm, p<0.0001) was 3 fold and the “increase in fluorescence magnitude vs samples not exposed to AA at same field” value ([2]; AA pH 4.40, 750 V/cm, p=0.0002) was 2.25 fold. The “increase in fluorescence magnitude vs samples not exposed to AA at same field” value ([2]; AA pH 4.40, 1000 V/cm, p<0.0001) was 3.5 fold, the “increase in mean fluorescence vs control (no AA or pulses)” value ([2]; AA pH 4.40 alone, no pulses) was 8.2 fold and the mean fluorescence magnitude ([2]; AA pH 4.40 alone, no pulses) was 1.04.
`CC(=O)Oc1ccccc1C(=O)O` [ASA, acetylsalicylic acid] was tested, and the “fluorescence magnitude compared to calcein alone (no ASA)” value ([2]; 1 mM or 5 mM ASA alone (pH 6.39, 5.40), no pulses) was “did not result in a significant increase”, the “increase in fluorescence magnitude relative to calcein at same field (no ASA)” value ([2]; 10 mM ASA, 500 V/cm, p<0.0001) was 3.7 fold and the “increase in fluorescence magnitude relative to calcein at same field (no ASA)” value ([2]; 10 mM ASA, 750 V/cm, p 0.0011) was 3.82 fold. For the same compound, the “increase in fluorescence magnitude relative to calcein at same field (no ASA)” value ([2]; 10 mM ASA, 1000 V/cm, p 0.0014) was 3.57 fold, the “increase in fluorescence magnitude relative to calcein at same field (no ASA)” value ([2]; 10 mM ASA, 1385 V/cm, p 0.0066) was 3.18 fold and the “increase in internalized calcein vs control (calcein, no ASA or pulses)” value ([2]; 10 mM ASA, no pulses, p<0.0001) was 5 fold. For the same compound, the “mean fluorescence magnitude compared to samples exposed to electric fields alone (no ASA)” value ([2]; 1 and 5 mM ASA, with electric fields) was “not significantly different” and the average fluorescent magnitude ([2]; calcein in 10 mM ASA (pH 4.40), no pulses) was 4.28 (SEM=0.63).
`O=C(O)c1ccccc1O` [SA, salicylic acid] was tested, and the “calcein delivery compared to samples exposed to calcein alone” value ([2]; 1, 5 or 10 mM SA (pH 6.70, 6.32, 3.85), 120 μM calcein, no applied electric field) was “did not augment the delivery” and the “fluorescent magnitude compared to samples treated with calcein and pulses (no salicylic acid)” value ([2]; 1, 5 or 10 mM SA, 120 μM calcein, electrical pulses 500-1385 V/cm) was “not significantly higher”.
